The subject of assay [1] is Canis familiaris. Kind of assay: Peripheral vasodilating activity in mongrel dog assessed as increase in iliac blood flow at 1600 ug, ia in presence of isoproterenol and 2000 ug/kg timolol. It is filed as functional, Canis lupus familiaris, Artery.
Assay [2] has as its system Canis familiaris. Kind of assay: In-vivo beta-adrenergic blocking activity in iv dosed mongrel dog assessed as blockade of isoproterenol-induced hypotension by measuring mean arterial pressure. Format: functional. The conditions noted are these: Canis lupus familiaris, Artery.
For assay [3], the system named is Canis familiaris. Kind of assay: In-vivo beta-adrenergic blocking activity in iv dosed mongrel dog assessed as blockade of isoproterenol-induced tachycardia by measuring heart rate. Format: functional. The conditions noted are these: Canis lupus familiaris.
Assay [4] concerns Rattus norvegicus. The experiment in a line: Antihypertensive activity in spontaneously hypertensive rat assessed as maximum fall in mean arterial pressure at 5 mg/kg, po. Format: functional, Artery.
The subject of assay [5] is Rattus norvegicus. Kind of assay: Antihypertensive activity in spontaneously hypertensive rat assessed as maximum fall in mean arterial pressure at 20 mg/kg, po. It is filed as functional, Artery.
The species named for assay [6] is Canis familiaris. Kind of assay: Peripheral vasodilating activity in mongrel dog assessed as increase in iliac blood flow at 1600 ug, ia. Format: functional, Canis lupus familiaris, Artery.
Assay [7] has as its system Canis familiaris. The experiment in a line: Peripheral vasodilating activity in mongrel dog assessed as increase in iliac blood flow at 1600 ug, ia in presence of isoproterenol and 500 ug/kg timolol. It is filed as functional, Canis lupus familiaris, Artery.
The test system of assay [8] is Canis familiaris. The experiment in a line: In-vivo beta-adrenergic blocking activity in iv dosed mongrel dog assessed as blockade of isoproterenol-induced bronchodilation by measuring pulmonary pressure. Format: functional. Particulars: Canis lupus familiaris.
The subject of assay [9] is Rattus norvegicus. Kind of assay: Antihypertensive activity in spontaneously hypertensive rat assessed as maximum fall in mean arterial pressure at 1.25 mg/kg, po. It is filed as functional, Artery.
For assay [10], the species on record is Canis familiaris. The experiment in a line: Peripheral vasodilating activity in mongrel dog assessed as increase in iliac blood flow at 250 ug, ia. It is filed as functional, Canis lupus familiaris, Artery.
Assay [11] concerns Canis familiaris. The experiment in a line: Peripheral vasodilating activity in mongrel dog assessed as increase in iliac blood flow at 1600 ug, ia in presence of isoproterenol and 1000 ug/kg timolol. Format: functional, Canis lupus familiaris, Artery.
In assay [12] the test system is Canis familiaris. Kind of assay: Peripheral vasodilating activity in mongrel dog assessed as increase in iliac blood flow at 32 ug, ia in presence of isoproterenol and 2000 ug/kg timolol. Format: functional, Canis lupus familiaris, Artery.
Assay [13] relates to Rattus norvegicus. Kind of assay: Antihypertensive activity in spontaneously hypertensive rat assessed as maximum fall in mean arterial pressure at 0.312 mg/kg, po. It is filed as functional, Artery.
For assay [14], the species on record is Canis familiaris. Kind of assay: Peripheral vasodilating activity in mongrel dog assessed as increase in iliac blood flow at 8 ug, ia. It is filed as functional, Canis lupus familiaris, Artery.
For assay [15], the species on record is Canis familiaris. Kind of assay: Peripheral vasodilating activity in mongrel dog assessed as increase in iliac blood flow at 16 ug, ia. It is filed as functional, Canis lupus familiaris, Artery.
Assay [16] is filed under the species Canis familiaris. The experiment in a line: Peripheral vasodilating activity in mongrel dog assessed as increase in iliac blood flow at 32 ug, ia. Format: functional, Canis lupus familiaris, Artery.
In assay [17] the test system is Canis familiaris. The experiment in a line: Peripheral vasodilating activity in mongrel dog assessed as increase in iliac blood flow at 8 ug, ia in presence of isoproterenol and 2000 ug/kg timolol. Format: functional, Canis lupus familiaris, Artery.
In assay [18] the test system is Canis familiaris. Kind of assay: Peripheral vasodilating activity in mongrel dog assessed as increase in iliac blood flow at 16 ug, ia in presence of isoproterenol and 2000 ug/kg timolol. Format: functional, Canis lupus familiaris, Artery.

By ED50 is commonly meant the dose that gives a 50% effect, or the effect in half of the subjects.

Take `Cc1c[nH]c(-c2ccc(OCC(O)CNC(C)(C)C)cc2)n1` (racemic): the Activity in the assay on Canis familiaris [1] was found to be 62 mL/min; with Rattus norvegicus [4], 6 mmHg; in the assay with Rattus norvegicus [5] it was 27 mmHg; in the assay listed under Canis familiaris [6], 101 mL/min; with Canis familiaris [7], 75 mL/min. The median effective dose (ED50) is more than 1 mg/kg with Canis familiaris [2] and 0.106 mg/kg in the assay on Canis familiaris [3].
For the compound `Cc1cc(OCC(O)CNC(C)(C)C)ccc1-c1ncc(C(F)(F)F)[nH]1` (racemic), the ED50 was found to be 0.361 mg/kg in the assay with Canis familiaris [2], 0.0227 mg/kg in the assay on Canis familiaris [3] and 0.0298 mg/kg in the assay with Canis familiaris [8]. Besides, the Activity in the assay with Rattus norvegicus [9] came to 32 mmHg; with Rattus norvegicus [4], 43 mmHg; in the assay with Rattus norvegicus [5], 44 mmHg; in the assay filed under Canis familiaris [6] it was 27 mL/min; in the assay listed under Canis familiaris [10], 11 mL/min.
As for `Cc1cc(-c2ncc(C(F)(F)F)[nH]2)ccc1OCC(O)CNC(C)(C)C` (racemic), the results for the ED50 with Canis familiaris [2] and in the assay on Canis familiaris [3] were 0.022 mg/kg and 0.011 mg/kg, respectively. Moreover, the Activity with Rattus norvegicus [9] was found to be 23 mmHg; with Rattus norvegicus [4], 36 mmHg; in the assay listed under Canis familiaris [6] it was 52 mL/min; in the assay filed under Canis familiaris [10] it was 6 mL/min; in the assay with Canis familiaris [11], 20 mL/min.
For the compound `CC(C)(C)NCC(O)COc1ccc(-c2nc(C(F)(F)F)c[nH]2)cc1` (racemic), the Activity with Canis familiaris [12] amounted to 15 mL/min; in the assay on Canis familiaris [1], 15 mL/min; in the assay with Rattus norvegicus [13], 21 mmHg; in the assay with Rattus norvegicus [9] it was 36 mmHg; with Rattus norvegicus [4] it was 49 mmHg; in the assay filed under Canis familiaris [14], 52 mL/min. Also, the Activity in the assay listed under Canis familiaris [15] was found to be 58 mL/min; in the assay filed under Canis familiaris [16] it was 63 mL/min; in the assay filed under Canis familiaris [6], 79 mL/min; in the assay on Canis familiaris [17], 10 mL/min; in the assay on Canis familiaris [18], 17 mL/min. The results for the ED50 with Canis familiaris [2], in the assay on Canis familiaris [3] and in the assay on Canis familiaris [8] were 0.042 mg/kg, 0.0076 mg/kg and 0.071 mg/kg, respectively.
Turning to `CC(C)(C)NCC(O)COc1ccc(-c2ncc[nH]2)cc1` (racemic), the ED50 was more than 1 mg/kg with Canis familiaris [2], 0.098 mg/kg in the assay with Canis familiaris [3] and more than 1 mg/kg with Canis familiaris [8]. The Activity with Rattus norvegicus [5] is 18 mmHg; in the assay listed under Canis familiaris [6] it was 36 mL/min; with Canis familiaris [7], 31 mL/min.
